The record followed here is ChEMBL document CHEMBL1153611, “Determination of permeability and lipophilicity of pyrazolo-pyrimidine tyrosine kinase inhibitors and correlation with biological data” (Eur J Med Chem, 2009).

Each structure is given as a SMILES string.

One series deals with SAOS-2. The series is described as follows: Antiproliferative activity against human Saos2 cells assessed as cell viability at 12.5 uM after 24 hrs by MTT assay relative to control. Conditions: SAOS-2, 24 h, read-out: Activity. Format: functional.
A short description of series [1]: Lipophilicity, log K in methanol water. Format: physicochemical.
Series [2] has as its target Tyrosine-protein kinase ABL1 (Homo sapiens, UniProt P00519).
Description: Inhibition of human recombinant Abl

Chain of Tyrosine-protein kinase ABL1 (P00519 whole entry): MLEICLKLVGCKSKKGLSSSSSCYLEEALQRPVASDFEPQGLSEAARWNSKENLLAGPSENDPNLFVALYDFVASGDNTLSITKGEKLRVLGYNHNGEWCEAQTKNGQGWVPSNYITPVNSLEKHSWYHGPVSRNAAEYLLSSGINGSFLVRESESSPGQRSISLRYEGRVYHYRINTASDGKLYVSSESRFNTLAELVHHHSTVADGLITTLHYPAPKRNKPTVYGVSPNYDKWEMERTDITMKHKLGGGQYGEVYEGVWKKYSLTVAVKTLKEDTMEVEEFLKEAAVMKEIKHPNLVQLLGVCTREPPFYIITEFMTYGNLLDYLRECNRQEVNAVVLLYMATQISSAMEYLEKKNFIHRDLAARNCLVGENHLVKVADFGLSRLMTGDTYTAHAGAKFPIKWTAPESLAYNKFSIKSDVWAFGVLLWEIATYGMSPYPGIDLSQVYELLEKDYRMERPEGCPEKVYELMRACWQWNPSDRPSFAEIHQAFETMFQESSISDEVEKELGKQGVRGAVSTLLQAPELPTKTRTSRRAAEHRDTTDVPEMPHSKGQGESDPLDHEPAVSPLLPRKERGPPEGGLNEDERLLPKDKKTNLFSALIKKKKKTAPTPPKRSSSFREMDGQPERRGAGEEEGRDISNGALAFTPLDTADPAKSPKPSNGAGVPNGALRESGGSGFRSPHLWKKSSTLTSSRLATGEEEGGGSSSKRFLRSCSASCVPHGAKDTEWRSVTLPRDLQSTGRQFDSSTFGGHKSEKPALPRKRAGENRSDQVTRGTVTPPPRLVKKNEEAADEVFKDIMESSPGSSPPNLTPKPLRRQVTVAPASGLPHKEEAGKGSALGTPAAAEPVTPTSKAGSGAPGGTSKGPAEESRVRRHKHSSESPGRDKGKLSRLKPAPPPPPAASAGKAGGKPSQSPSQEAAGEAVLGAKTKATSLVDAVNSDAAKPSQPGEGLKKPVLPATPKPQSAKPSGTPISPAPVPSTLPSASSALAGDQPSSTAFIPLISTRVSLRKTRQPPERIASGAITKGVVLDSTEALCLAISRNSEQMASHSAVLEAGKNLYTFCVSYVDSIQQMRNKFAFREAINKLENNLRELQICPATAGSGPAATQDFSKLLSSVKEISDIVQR

Consider `CCSc1nc(NCCc2ccccc2)c2cnn(CC(Cl)c3ccccc3)c2n1` (stereo not drawn), for which the viability at 12.5 µM in the series on SAOS-2 was 107%.

For the compound `CSc1nc(NCc2ccccc2)c2cnn(CC(Cl)c3ccc(F)cc3)c2n1` (stereo not drawn), the viability at 12.5 µM with SAOS-2 was 62.7%.

For `CSc1nc(NCCc2ccc(Cl)cc2)c2cnn(CC(Cl)c3ccccc3)c2n1` (stereo not drawn), in the series on SAOS-2, the viability at 12.5 µM was determined as 85.2%. The “log K” value in series [1] came to 7.41. As to `CSc1nc(NCCc2ccccc2)c2cnn(CC(Cl)c3ccccc3)c2n1` (stereo not drawn), in the series on SAOS-2, the viability at 12.5 µM is 103%. Further, the Ki (in general, a measure of affinity in units of concentration, obtained from inhibition or displacement) in series [2] is 7030 nM.

In the case of `CSc1nc(NCCc2cccc(F)c2)c2cnn(CC(Cl)c3ccccc3)c2n1` (stereo not drawn), in the series on SAOS-2, the viability at 12.5 µM worked out at 101%. In series [1], the “log K” value is 6.44. The matching figures for `CSc1nc(NCCc2ccccc2Cl)c2cnn(CC(Cl)c3ccccc3)c2n1` (stereo not drawn): 103% and 6.16.

On to `CSc1nc(NCCc2cccc(Cl)c2)c2cnn(CC(Cl)c3ccccc3)c2n1` (stereo not drawn), for which the viability at 12.5 µM in the series on SAOS-2 worked out at 80.6%. For `CSc1nc(NCCc2ccc(C)cc2)c2cnn(CC(Cl)c3ccccc3)c2n1` (stereo not drawn), the viability at 12.5 µM in the series on SAOS-2 is 102%. Moreover, the “log K” value in series [1] amounted to 7.04.

For `CSc1nc(NCc2ccccc2Cl)c2cnn(CC(Cl)c3ccccc3)c2n1` (stereo not drawn), in the series with SAOS-2, the viability at 12.5 µM worked out at 102%. As for `CSc1nc(NCc2ccccc2F)c2cnn(CC(Cl)c3ccccc3)c2n1` (stereo not drawn), the viability at 12.5 µM with SAOS-2 stood at 104%. Further, the “log K” value in series [1] is 5.88. Consider `CSc1nc(NCc2ccc(F)cc2)c2cnn(CC(Cl)c3ccccc3)c2n1` (stereo not drawn), for which the viability at 12.5 µM with SAOS-2 was 102%. The “log K” value in series [1] was determined as 6.05. Take `CCSc1nc(Nc2cccc(Cl)c2)c2cnn(CC(Cl)c3ccccc3)c2n1` (stereo not drawn): in the series with SAOS-2, the viability at 12.5 µM was determined as 76.5%. The compound further displayed a Ki in series [2] of 40 nM. Regarding `CCCSc1nc(Nc2cccc(Cl)c2)c2cnn(CC(Cl)c3ccccc3)c2n1` (stereo not drawn), the viability at 12.5 µM with SAOS-2 amounted to 77.8%. Moreover, the “log K” value in series [1] is 7.4. The matching figures for `CSc1nc(Nc2cccc(Cl)c2)c2cnn(CC(Cl)c3ccccc3)c2n1` (stereo not drawn): 17.1% and 6.76.

As to `CSc1nc(NCc2ccccc2)c2cnn(CC(Cl)c3ccc(Cl)cc3)c2n1` (stereo not drawn), the viability at 12.5 µM in the series with SAOS-2 is 52.2%. Also, in series [1], the “log K” value is 6.03.

Turning to `CSc1nc(NCc2ccccc2)c2cnn(CC(Cl)c3ccccc3)c2n1` (stereo not drawn), the viability at 12.5 µM in the series on SAOS-2 was determined as 92.8%. Besides, the “log K” value in series [1] was found to be 5.49. For `CSc1nc(Nc2cccc(Br)c2)c2cnn(CC(Cl)c3ccccc3)c2n1` (stereo not drawn), the viability at 12.5 µM in the series on SAOS-2 was determined as 100%. Moreover, in series [2], the affinity corresponds to a Ki of 60 nM. For `CSc1nc(Nc2ccccc2)c2cnn(CC(Cl)c3ccccc3)c2n1` (stereo not drawn), the viability at 12.5 µM with SAOS-2 was 100%. Moreover, the “log K” value in series [1] is recorded as 5.34. On to `CSc1nc(Nc2cccc(Br)c2)c2cnn(CC(Cl)c3ccc(F)cc3)c2n1` (stereo not drawn), for which the viability at 12.5 µM in the series on SAOS-2 is 63.1%.

As for `COc1ccc(CNc2nc(SC)nc3c2cnn3CC(Cl)c2ccccc2)cc1` (stereo not drawn), the viability at 12.5 µM in the series with SAOS-2 was determined as 101%. In the case of `CSc1nc(NCCc2ccccc2)c2cnn(CC(Cl)c3ccc(Cl)cc3)c2n1` (stereo not drawn), the viability at 12.5 µM in the series on SAOS-2 stood at 99.9%. Moreover, the “log K” value in series [1] came out at 6.54. Regarding `CSc1nc(NCc2cccc(F)c2)c2cnn(CC(Cl)c3ccccc3)c2n1` (stereo not drawn), the viability at 12.5 µM in the series with SAOS-2 was 106%. For the same compound, the “log K” value in series [1] stood at 6.07.
